This is an account of results in patent US20100256357A1, “HETEROCYCLES USEFUL AS INHIBITORS OF CARBONIC ANHYDRASE” (Agouron Pharmaceuticals, Inc., priority 2006, published 2010).

One test has as its target T1, human CA-IX (Homo sapiens, UniProt Q16790).
T1 construct: purchased R&D Systems Inc. 2188-CA-010
As to the kind of experiment: Carbonic Anhydrase-IX (CA-IX) Fluorescence Polarization Assay-IC50 Determination. It counts as binding. The following applies: read-out: CAIX IC50. The protocol: Carbonic Anhydrase-IX (CA-IX) Fluorescence Polarization Assay-IC50 Determination
Compounds were diluted in DMSO at the concentration of 1 mM, then 50 μM and transferred to a 96-well plate for further dilutions (1:3 dilution, 11 points) in duplicate. Final compound highest concentration in CA-IX FP assay is 1 μM. Assays were conducted in a final volume of 100 μL in 50 mM Tris/HCl (pH 7.6), 100 mM Na2SO4 and 0.005% Tween-20 in a 96-well black assay. plate. […] was used as the tracer. Binding inhibition was determined by pipetting 8 μL of human CA-IX (8 nM, R&D Systems Inc. Cat#2188-CA-010) into assay plate contained 2 μL of compound and 2 μL of tracer (2 nM) in 88 μL of assay buffer. The assay plate was incubated at room temperature for 30 minutes and read in the fluorescence polarization reader (Molecular Devices, Analyst) at 524/45 nm (excitation), 595/60 nm (emission) and 561 nm (bean splitter). […] GraphPad Prism or similar in-house software with the IC50 curve fitting using the four parameter logistic equation.

Another test deals with T2, human CA-XII (Homo sapiens, UniProt O43570).
T2 construct: made in house; host or cells: Escherichia coli AD494 (DE3)
Briefly: Carbonic Anhydrase-XII (CA-XII) Fluorimetric Assay-IC50 Determination. The following applies: for inhibition at 1 µM: read-out: % inh CAXII @ 1 uM; for IC50: read-out: CAXII IC 50. Type of test: biochemical. The protocol: Carbonic Anhydrase-XII (CA-XII) Fluorimetric Assay-IC50 Determination
The cells were grown in LB (Biomyx) supplemented with 800 uM ZnCl2 at 37° C. until an O.D.600 of 0.7, at which point the cells were induced with 100 uM IPTG for 20 hours at 20° C. The frozen pellet was resuspended in 50 mM MES pH 6.0, 100 mM NaCl, 800 uM ZnCl2 and EDTA-Free protease inhibitors (Roche). The cells were lysed with a microfluidizer and the lysate was spun at 40,000 rpm for 45 minutes at 4° C. The soluble fraction was then put over a 100 ml SP-Sepharose High Performance (GE Healthcare) column and eluted with a 50 mM MES pH 6.0, 750 mM NaCl gradient.
Compounds were diluted in DMSO at the concentration of 1 mM, then 50 μM and transferred to a 96-well plate for further dilutions (1:3 dilution, 11 points) in duplicate. Final compound highest concentration in CA-XII Fluorimetric assay is 1 μM. Assays were conducted in a final volume of 100 μL in 50 mM Tris/HCl (pH 7.6), 100 mM Na2SO4 and 0.005% Tween-20 in a 96-well black assay plate. Fluorescein diacetate was used as the substrate. Enzyme inhibition was determined by pipetting 8 μL of human CA-XII (50 nM) into assay plate contained 2 μL of compound and 2 μL of substrate (10 μM) in 88 μL of assay buffer.

For the next test, the target named is T3, human CA-IV (Homo sapiens, UniProt P22748).
T3 construct: made in house; host or cells: Escherichia coli BL21(DE3)
Briefly: Carbonic Anhydrase-IV (CA-IV) Fluorescence Polarization Assay-IC50 Determination. Type of test: binding. The method in brief:
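IC50 values come from a fluorescence polarization read-out. The CA-IV protein was zinc-supplemented during expression and purified by cation exchange then gel filtration, ending in 25 mM Tris-HCl pH 7.0 with 100 mM NaCl at 7.0 mg/mL.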

The target in test [1] is T4, human CA-II (Homo sapiens, UniProt P00918).
T4 construct: purchased Sigma-Aldrich C6165
As to the kind of experiment: Carbonic Anhydrase-II (CA-II) Fluorimetric Assay-IC50 Determination. Type of test: biochemical. The method, boiled down: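 Enzyme activity is read fluorimetrically at 25° C (ex 488 nm / em 538 nm) as the rate at which human CA-II hydrolyses fluorescein diacetate. The buffer is Tris/HCl (50 mM, pH 7.6) with 100 mM Na2SO4 and 0.005% Tween-20. Inhibitors run in duplicate over 11 threefold dilutions, […]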

Test [2] has as its target T4, human CA-II. Briefly: Carbonic Anhydrase-II (CA-II) Fluorescence Polarization Tight Binding Assay-Kd Determination. The following applies: read-out: CA-II Kd. How it is done:
Assays were conducted in a final volume of 100 μL in 50 mM Tris/HCl (pH 7.6), 100 mM Na2SO4 and 0.005% Tween-20 in a 96-well black assay plate. […] The assay plate was
The Kd binding was calculated using GraphPad Prism and Morrison tight binding ligand equation.
A general note: In fluorescence polarisation assays a small probe gives low polarisation when free and higher when bound to something large.

A further test deals with CAI (Homo sapiens, UniProt P00915). As to the kind of experiment: CAI IC50 (no method described). Type of test: biochemical.

Where two headings read alike, the source gives them in different places. Bounds are passed on as bounds.

T3 sequence (P22748 19-284 limits assumed): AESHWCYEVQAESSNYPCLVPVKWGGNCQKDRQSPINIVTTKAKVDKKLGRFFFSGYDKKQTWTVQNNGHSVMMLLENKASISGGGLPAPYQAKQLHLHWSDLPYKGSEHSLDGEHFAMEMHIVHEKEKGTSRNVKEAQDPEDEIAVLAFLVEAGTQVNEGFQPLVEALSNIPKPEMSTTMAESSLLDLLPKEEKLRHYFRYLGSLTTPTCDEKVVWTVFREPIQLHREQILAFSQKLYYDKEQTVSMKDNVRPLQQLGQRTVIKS
T2 sequence (O43570 30-289 limits assumed): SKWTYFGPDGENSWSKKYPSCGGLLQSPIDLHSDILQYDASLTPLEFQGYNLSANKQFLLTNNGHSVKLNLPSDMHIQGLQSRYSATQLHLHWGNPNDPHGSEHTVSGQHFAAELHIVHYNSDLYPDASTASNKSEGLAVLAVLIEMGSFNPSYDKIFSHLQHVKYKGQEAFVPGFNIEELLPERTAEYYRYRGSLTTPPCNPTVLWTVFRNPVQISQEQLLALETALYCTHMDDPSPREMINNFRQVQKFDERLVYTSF
Chain of CAI (P00915 whole entry, species assumed): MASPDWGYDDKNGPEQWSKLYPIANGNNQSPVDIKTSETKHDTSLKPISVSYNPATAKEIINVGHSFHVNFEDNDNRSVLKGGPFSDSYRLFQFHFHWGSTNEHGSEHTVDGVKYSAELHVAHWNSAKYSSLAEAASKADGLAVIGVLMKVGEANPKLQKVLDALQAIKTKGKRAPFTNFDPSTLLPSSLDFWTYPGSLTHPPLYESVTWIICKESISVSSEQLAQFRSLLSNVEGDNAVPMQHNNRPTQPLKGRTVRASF

Regarding `CN(Cc1nc(Cc2ccccc2)n(-c2ccc(S(N)(=O)=O)cc2F)n1)C1CCCCC1` [Example F-1aq, 4-(5-benzyl-3-{[cyclohexyl(methyl)amino]methyl}-1H-1,2,4-triazol-1-yl)-3-fluorobenzenesulfonamide], the IC50 on human CA-IX stood at 9.41 nM.
Still for that read-out and setting: in the case of `CCCCN(C)Cc1nc(Cc2ccccc2)n(-c2ccc(S(N)(=O)=O)cc2F)n1` [Example G-1b, 4-(5-benzyl-3-{[butyl(methyl)amino]methyl}-1H-1,2,4-triazol-1-yl)-3-fluorobenzenesulfonamide] it was 9.01 nM.
Take `CCOC(=O)c1nn(-c2ccc(S(N)(=O)=O)cc2)c2c1CNCC2` [EE-1g, ethyl 1-[4-(aminosulfonyl)phenyl]-4,5,6,7-tetrahydro-1H-pyrazolo[4,3-c]pyridine-3-carboxylate]: on human CA-XII, the inhibition at 1 µM is 31% and the IC50 was over 1000 nM.
With `CN(CCc1ccccc1)Cc1cn(Cc2ccccc2F)c(-c2ccc(S(N)(=O)=O)cc2)n1` [CCC-1a, 4-(1-(2-fluorobenzyl)-4-{[methyl(2-phenylethyl)amino]methyl}-1H-imidazol-2-yl)benzenesulfonamide], on human CA-IX, the IC50 stood at 39.3 nM.
With `CCOC(=O)c1cc(C)n(-c2ccc(S(N)(=O)=O)cc2)n1` [GG-1, Ethyl 1-[4-(Aminosulfonyl)phenyl]-5-methyl-1H-pyrazole-3-carboxylate], on human CA-XII, the inhibition at 1 µM was determined as 51% and the IC50 is 896 nM. Further, the IC50 at human CA-IV (read-out: IC50_CAIV) is at least 5000 nM.
In the case of `CN(CCc1ccccc1)C(=O)c1nc(Cc2ccccc2)n(-c2ccc(S(N)(=O)=O)cc2F)n1` [Example A-1d, 1-[4-(aminosulfonyl)-2-fluorophenyl]-5-benzyl-N-methyl-N-(2-phenylethyl)-1H-1,2,4-triazole-3-carboxamide], at human CA-IX, the IC50 is 2.94 nM.
In the case of `Cc1cc(C(=O)N2CCN(C)CC2)nn1-c1ccc(S(N)(=O)=O)cn1` [MM-1c, 6-{5-methyl-3-[(4-methylpiperazin-1-yl)carbonyl]-1H-pyrazol-1-yl}pyridine-3-sulfonamide], the inhibition at 1 µM on human CA-XII came out at 86%. Also, the results for the IC50 at human CA-XII and at human CA-IV (read-out: IC50_CAIV) were 166 nM and 2950 nM, respectively.
`Cc1nc(Cc2cccc(F)c2)n(-c2ccc(S(N)(=O)=O)cc2)n1` [f-3a, 4-[5-(3-fluorobenzyl)-3-methyl-1H-1,2,4-triazol-1-yl]benzenesulfonamide]: the IC50 on human CA-IX worked out at 36.9 nM.
Same read-out and setting: under `Cc1cccc(Cc2nc(CN(C)C3CCCC3)nn2-c2ccc(S(N)(=O)=O)cc2F)c1` [Example F-1ak] stands 3.83 nM.
For `COC[C@H](C)NC(=O)c1nc(Cc2ccccc2)n(-c2ccc(S(N)(=O)=O)cc2)n1` [Example R-21, 1-[4-(aminosulfonyl)phenyl]-5-benzyl-N-[(1S)-2-methoxy-1-methylethyl]-1H-124-triazole-3-carboxamide], on human CA-IV (CA-IV Min dose 200 nM, read-out: CA-IV: % Inh @ Min dose), the inhibition at 0.2 µM came out at 53.6%. For the same compound, the IC50 on human CA-IV (read-out: CA-IV IC50) is 356 nM; at human CA-IX, 53.3 nM. In addition, the inhibition at 0.1 µM on human CA-II [1] (CA II Min dose 100 nM, read-out: CAII % Inh @ Min dose) amounted to 100%. Further, the Kd on human CA-II [2] is 0.09 nM.
With `Cc1cccc(Cc2nc(C)nn2-c2ccc(S(N)(=O)=O)c(F)c2F)c1` [Example Q-1, 2,3-Difluoro-4-[3-methyl-5-(3-methylbenzyl)-1H-1,2,4-triazol-1-yl]benzenesulfonamide], at CAI, the IC50 was determined as 4610 nM. For the same compound, at human CA-IV (@ 5 uM), the “% printed in column IC50_CAIV” value is 51% @ 5 uM. On human CA-II [1] (69 0.010 nM (so in the source)), the “% printed in column IC50—CAII” value was found to be 0% 69 0.010 nM.
Consider `CCOC(=O)c1nc(Cc2ccccc2)n(-c2ccc(S(N)(=O)=O)cc2)n1` [a-4, Ethyl 1-[4-(Aminosulfonyl)phenyl]-5-benzyl-1H-1,2,4-triazole-3-carboxylate], for which, at human CA-XII, the inhibition at 1 µM amounted to 95% and the IC50 was 73.8 nM.
Take `NS(=O)(=O)c1ccc(-n2nc(CO)cc2Cc2ccc(Cl)cc2)cc1` [qq-3a, 4-[5-(4-chlorobenzyl)-3-(hydroxymethyl)-1H-pyrazol-1-yl]benzenesulfonamide]: the IC50 at human CA-IV (read-out: IC50_CAIV) was 284 nM; at human CA-IX, 13.5 nM.
For the compound `Cc1nc(C(=O)O)nn1-c1ncc(S(N)(=O)=O)cn1` [Example I-5b, 1-[5-(aminosulfonyl)pyrimidin-2-yl]-5-methyl-1H-1,2,4-triazole-3-carboxylic acid], the inhibition at 1 µM at human CA-XII stood at 46%. Besides, the IC50 on human CA-XII is over 1000 nM; at human CA-IV (read-out: IC50_CAIV) it was over 1000 nM; at human CA-II [1] (read-out: IC50—CAII) it was 57.9 nM.
`NS(=O)(=O)c1ccc(-n2nc(CN3CC=CCC3)nc2Cc2cccc(Br)c2)cc1` [Example F-1z, 4-[5-(3-bromobenzyl)-3-(3,6-dihydropyridin-1(2H)-ylmethyl)-1H-1,2,4-triazol-1-yl]benzenesulfonamide]: on human CA-IX, the IC50 worked out at 7.99 nM.
As for `NS(=O)(=O)c1ccc(-n2nc(C(=O)O)nc2Cc2ccccc2)cc1` [a-5, 1-[4-(Aminosulfonyl)phenyl]-5-benzyl-1H-1,2,4-triazole-3-carboxylic acid], at human CA-XII, the inhibition at 1 µM is 99% and the IC50 is 25.8 nM.
For `CCCCN(C)C(=O)c1nc(Cc2ccccc2)n(-c2ccc(S(N)(=O)=O)cc2F)n1`, the IC50 on human CA-IX is 2.79 nM.
As to `NS(=O)(=O)c1ccc(-n2nc(CN3CCOCC3)c3c2CCCC3)cc1` [II-1b, 4-[3-(morpholin-4-ylmethyl)-4,5,6,7-tetrahydro-1H-indazol-1-yl]benzenesulfonamide], on human CA-XII, the inhibition at 1 µM was 89% and the IC50 is 119 nM. In addition, the IC50 on human CA-IV (read-out: IC50_CAIV) is at least 5000 nM.
With `CCCN(C)Cc1nc(Cc2cccc(C)c2)n(-c2ccc(S(N)(=O)=O)cc2F)n1` [Example F-1aj, 3-fluoro-4-[5-(3-methylbenzyl)-3-{[methyl(propyl)amino]methyl}-1H-1,2,4-triazol-1-yl]benzenesulfonamide], at human CA-IX, the IC50 worked out at 4.32 nM.
`NS(=O)(=O)c1ccc(-n2ncnc2Cc2ccccc2)cc1` [Example L-1a, 4-(5-benzyl-1H-1,2,4-triazol-1-yl)benzenesulfonamide]: the IC50 on human CA-IX came out at 35.6 nM.
Consider `C[C@@H]1CN(Cc2nc(Cc3ccccc3)n(-c3ccc(S(N)(=O)=O)cc3F)n2)C[C@H](C)O1` [Example F-1, 4-(5-Benzyl-3-{[2,6-cis-dimethylmorpholin-4-yl]methyl}-1H-1,2,4-triazol-1-yl)-3-fluorobenzenesulfonamide], for which the IC50 on human CA-IX came out at 26.1 nM.
In the case of `Cc1cc(C(=O)N(C)C)nn1-c1ccc(S(N)(=O)=O)cn1` [MM-1b, 1-[5-(aminosulfonyl)pyridin-2-yl]-N,N,5-trimethyl-1H-pyrazole-3-carboxamide], at human CA-XII, the inhibition at 1 µM was determined as 96% and the IC50 turned out to be 66.5 nM. Besides, the IC50 at human CA-IV (read-out: IC50_CAIV) is 2390 nM.
For the compound `CN(Cc1cc(Cc2ccc(Cl)cc2)n(-c2ccc(S(N)(=O)=O)cc2)n1)C1CCCCC1` [QQ-10], the IC50 on human CA-IX stood at 5.18 nM.
Take `COCc1nc(Cc2cccc(Br)c2)n(-c2ccc(S(N)(=O)=O)cc2)n1` [f-3g, 4-[5-(3-bromobenzyl)-3-(methoxymethyl)-1H-1,2,4-triazol-1-yl]benzenesulfonamide]: on human CA-IX, the IC50 was 8.11 nM.

What is called Kd is the constant that tells how readily two partners part at equilibrium.
